From patent US8840915B2, “Pharmaceutical compositions for sustained release delivery of peptides” (Foresec Pharmaceuticals, LLC, priority 2006, dated 2014)

Key:
[1] = In vitro release of octreotide and Pal-PEG-BA-OCT from formulation in DLPLG85/15 solution in NMP; degradation/acylation by HPLC; assay type: physicochemical
Method: (§1) Poly(DL-lactide-co-glycolide) (PLGA) of an 85/15 ratio of lactide to glycolide having a polydispersity of 1.5 (DLPLG85/15, IV: 0.28) was dissolved in N-methyl-2-pyrrolidone (NMP) to obtain a 50% solution by weight.
(§2) An aliquot from each formulation was taken for in vitro release in phosphate buffer at pH 7.4 containing 0.1% sodium azide at 37° C. and the remaining formulation was used to monitor the stability of the peptides and the polymer at room temperature over time. The time points are 0.125, 1, 2, 5, 7, 14, 21, and 28 days. Purity of the peptides in the sample was determined by HPLC. Molecular weight of the polymer was determined by gel permeation chromatography (GPC) using polystyrene standards with known molecular weights.
And more than 50% of the octreotide detected in the releasing medium was degraded or acylated after 28 days. After 28 days, the polymer matrix was dissolved in acetonitrile, and the polymer was precipitated using water. The octreotide was analyzed by HPLC. […] It would be highly advantageous to prevent such interaction between the peptide and the polymer.

[2] = Stability of the peptides in liquid polymeric formulations (purity by HPLC, room temperature); assay type: physicochemical; conditions: for Stability of the peptides in liquid polymeric formulations: 6% drug load in 50% DLPLG85/15 in NMP, room temperature, purity by HPLC
Method: as §1, §2
(§3) According to prior art, the presence of a nucleophilic group on a peptide can lead to an interaction between the peptide and the biodegradable polymer of a composition. The nucleophilic groups on the peptide can react with the biodegradable polymer to form acylated products and can catalyze the degradation of the biodegradable polymer. It is well known that when octreotide and poly(DL-lactide-co-glycolide) are combined, especially in an organic solution such as NMP, the octreotide will be acylated and the polymer will be degraded rapidly. The N-terminal conjugation of the octreotide in the present invention contains one primary amine, one secondary amine and one C-terminal carboxylic acid group and is expected to interact and/or react with the polymer similarly to the octreotide itself. […] However, the covalently conjugated octreotide was stable even after 56 days under the same condition. […] After 21 days, the molecular weight of the polymer was reduced by 50%. However, for the polymer in the formulation containing covalently conjugated octreotide, more than 90% of the original molecular weight was retained.

[3] = Stability of the polymer in liquid polymeric formulations (molecular weight by GPC, room temperature); assay type: physicochemical; conditions: formulation containing the peptide; for Stability of the polymer in liquid polymeric formulations: polymer molecular weight by GPC, room temperature
Method: as §1, §2, §3

[4] = In vitro release of ghrelin and deacylated ghrelin from formulations in RG503H solution in mPEG350; assay type: physicochemical; conditions: about 6% in 40% PLGA RG503H in mPEG350; PBS pH 7.4, 37° C.; two week period; HPLC
Method: 40% PLGA RG503H was prepared by appropriately dissolving the polymer in mPEG350. Then ghrelin (Human, Rat 1-5) and deacylated ghrelin (Des-n-Octanoyl-[Ser]^3-ghrelin (Human, Rat 1-5)) were mixed with the polymer solution at about 6% respectively. The formulations were thoroughly mixed to obtain uniform formulations.
The formulation suspensions (about 100 mg) were injected into in 3 mL phosphate buffer saline solution at pH 7.4 with 0.1% sodium azide at 37° C. The receiving fluid was replaced at selected time points with fresh buffer solution, and the removed buffer solution was diluted appropriately with PB at pH 7.4 and was analyzed for drug concentration by HPLC using corresponding standard curves.

[5] = in vivo; cited from earlier work
[6] = within 24 hours; 50/50 poly(DL-lactide-co-glycolide) having a carboxy terminal group, solution in NMP; cited from earlier work
[7] = In vitro release of lysozyme and palmitoylated lysozyme from injectable polymer solution (RG503H in mPEG350); assay type: physicochemical; conditions: about 7% in 40% PLGA RG503H in mPEG350; PBS pH 7.4, 37° C.; UV 280 nm
Method: 40% PLGA RG503H was prepared by appropriately dissolving the polymer in mPEG350. Then Palmitoyl-Lysozyme and lysozyme were mixed with the polymer solution at about 7% respectively. The formulations were thoroughly mixed to obtain uniform formulations.
In vitro release of lysozyme and palmitoylated lysozyme from injectable polymer solution. The formulation suspensions (about 100 mg) were injected into in 3 mL phosphate buffer saline solution at pH 7.4 with 0.1% sodium azide at 37° C. The receiving fluid was replaced at selected time points with fresh buffer solution, and the removed buffer solution was diluted appropriately with PB at pH 7.4 and analyzed for drug concentration by UV spectrophotometer at 280 nm against standard curves.

In the case of `C[C@@H](O)[C@@H]1NC(=O)[C@H](CCCCN)NC(=O)[C@@H](Cc2c[nH]c3ccccc23)NC(=O)[C@H](Cc2ccccc2)NC(=O)[C@@H](NC(=O)[C@H](N)Cc2ccccc2)CSSC[C@@H](C(=O)N[C@H](CO)[C@@H](C)O)NC1=O` [Octreotide, octreotide], the “peptide remaining in the polymer matrix acylated” value ([1]; after 28 days of in vitro release, matrix dissolved in acetonitrile, HPLC) is reported as “more than 50%”, the “peptide detected in the releasing medium degraded or acylated” value ([1]; after 28 days, phosphate buffer pH 7.4, 0.1% sodium azide, 37° C.) is reported as “more than 50%” and the “peptide detected in the releasing medium degraded or reacted with the polymer” value ([1]; within 3 hours, phosphate buffer pH 7.4, 0.1% sodium azide, 37° C.) is reported as “about 30%”. The “Stability of the peptides in liquid polymeric formulations” value (from here on “Stability of the peptides”) ([2]; Day 7) was 2.3, the “Stability of the peptides” value ([2]; Day 14) was 0.6 and the “Stability of the peptides” value ([2]; Day 21) was 0.3. For the same molecule, the “Stability of the peptides” value ([2]; Day 56) was 0.0, the “reaction of the peptide with the polymer” value ([2]; after 7 days at room temperature, poly(DL-lactide-co-glycolide) solution in NMP) was “almost completely reacted” and the peptide acylated ([2]; within 24 hours at room temperature, poly(DL-lactide-co-glycolide) solution in NMP) was “more than 80%”. For the same molecule, the “Stability of the polymer in liquid polymeric formulations” value (from here on “Stability of the polymer”) ([3]; Day 0) was 100, the “Stability of the polymer” value ([3]; Day 0.1) was 95.8 and the “Stability of the polymer” value ([3]; Day 1) was 75.3. The “Stability of the polymer” value ([3]; Day 2) was 66.1, the “Stability of the polymer” value ([3]; Day 3) was 65.3 and the “Stability of the polymer” value ([3]; Day 7) was 59.0. The “Stability of the polymer” value ([3]; Day 14) was 57.1, the “Stability of the polymer” value ([3]; Day 21) was 51.3 and the “molecular weight of the polymer reduced by” value ([3]; after 21 days at room temperature) was 50%.
In the case of “Des-n-Octanoyl-[Ser]^3-ghrelin (Human, Rat 1-5) [deacylated ghrelin]”, the “in vitro release rate” value [4] is reported as “much faster release”.
For Detemir, the circulation half-life [5] is given as 10.2 ± 1.2 h.
In the case of `C[C@@H](O)[C@@H]1NC(=O)[C@H](CCCCN)NC(=O)[C@@H](Cc2c[nH]c3ccccc23)NC(=O)[C@H](Cc2ccccc2)NC(=O)[C@@H](NC(=O)[C@H](N)Cc2ccccc2)CSSC[C@@H](C(=O)N[C@H](CO)[C@@H](C)O)NC1=O` [octreotide acetate], the “octreotide acylated and/or degraded” value [6] is given as “more than 80%”.
For ghrelin (Human, Rat 1-5), the “in vitro release rate” value [4] was “much slower release rate”.
With “native lysozyme: Lysozyme (Mw 14,500), unmodified” the “initial in vitro release” value [7] was “significant release initially”.
